Measurements reported in paper PMC9929129, “Towards Translation of PqsR Inverse Agonists: From In Vitro Efficacy Optimization to In Vivo Proof‐of‐Principle” (Advanced Science, 2023).
pIC50: −log10 of the molar value.

What was measured:
5-HT transporter (h) = biological target: T1, 5-HT transporter (h) (Homo sapiens, UniProt P31645); experiment: Cerep panel binding assay; conditions: antagonist radioligand
T1 construct: purchased Eurofins Pharma Discovery (Cerep) SafetyScreen44 Panel, ITEM P270
Protocol: (§1) 1.4 Safety Pharmacology of Compound 24
(§2) 1.4.1 Cerep panel (Eurofins)
(§3) Compound 24 was further profiled for its off-target interactions against a panel of 44 targets. The
(§4) screening was done by Eurofins Pharma Discovery within the SafetyScreen44 Panel (Cerep, ITEM
(§5) P270). In all assays binding/functional inhibition was determined at 10 µM.
(§6) Table S6. […]

5-HT2A (h) = biological target: T2, 5-HT2A (h) (Homo sapiens, UniProt P28223); experiment: Cerep panel binding assay; conditions: agonist radioligand
T2 construct: Eurofins Pharma Discovery (CRO that ran the assay) SafetyScreen44 Panel (Cerep, ITEM P270)
Protocol: as §1, §2, §3, §4, §5, §6

MAO-A = biological target: T3, MAO-A (Rattus norvegicus, UniProt P21396); experiment: Cerep panel binding assay; conditions: antagonist radioligand
T3 construct: purchased Eurofins Pharma Discovery (Cerep) SafetyScreen44 Panel, ITEM P270
Protocol: as §1, §2, §3, §4, §5, §6

A2A (h) = biological target: T4, A2A (h) (Homo sapiens, UniProt P29274); experiment: Cerep panel binding assay; conditions: 10 µM, agonist radioligand
T4 construct: Eurofins Pharma Discovery (CRO that ran the assay) SafetyScreen44 Panel (Cerep, ITEM P270)
Protocol: as §1, §2, §3, §4, §5, §6

H2 (h) = biological target: T5, H2 (h) (Homo sapiens, UniProt P25021); experiment: Cerep panel binding assay; conditions: antagonist radioligand
T5 construct: Eurofins Pharma Discovery (CRO that ran the assay) SafetyScreen44 Panel (Cerep, ITEM P270)
Protocol: as §1, §2, §3, §4, §5, §6

KV channel = experiment: Cerep panel binding assay; conditions: 10 µM, antagonist radioligand
Protocol: as §1, §2, §3, §4, §5, §6

alpha2A (h) = biological target: T6, alpha2A (h) (Homo sapiens, UniProt P08913); experiment: Cerep panel binding assay; conditions: antagonist radioligand
T6 construct: purchased Eurofins Pharma Discovery (Cerep) SafetyScreen44 Panel, ITEM P270
Protocol: as §1, §2, §3, §4, §5, §6

beta1 (h) = biological target: T7, beta1 (h) (Homo sapiens, UniProt P08588); experiment: Cerep panel binding assay; conditions: agonist radioligand
T7 construct: purchased Eurofins Pharma Discovery (Cerep) SafetyScreen44 Panel, ITEM P270
Protocol: as §1, §2, §3, §4, §5, §6

5-HT3 (h) = biological target: T8, 5-HT3 (h) (Homo sapiens, UniProt P46098); experiment: Cerep panel binding assay; conditions: antagonist radioligand
T8 construct: purchased Eurofins Pharma Discovery (Cerep) SafetyScreen44 Panel, ITEM P270
Protocol: as §1, §2, §3, §4, §5, §6

BZD (central) = experiment: Cerep panel binding assay; conditions: 10 µM, agonist radioligand
Protocol: as §1, §2, §3, §4, §5, §6

CB2 (h) = biological target: T9, CB2 (h) (Homo sapiens, UniProt P34972); experiment: Cerep panel binding assay; conditions: agonist radioligand
T9 construct: purchased Eurofins Pharma Discovery (Cerep) SafetyScreen44 Panel, ITEM P270
Protocol: as §1, §2, §3, §4, §5, §6

5-HT2B (h) = biological target: T10, 5-HT2B (h) (Homo sapiens, UniProt P41595); experiment: Cerep panel binding assay; conditions: agonist radioligand
T10 construct: purchased Eurofins Pharma Discovery (Cerep) SafetyScreen44 Panel, ITEM P270
Protocol: as §1, §2, §3, §4, §5, §6

H1 (h) = biological target: T11, H1 (h) (Homo sapiens, UniProt P35367); experiment: Cerep panel binding assay; conditions: antagonist radioligand
T11 construct: purchased Eurofins Pharma Discovery (Cerep) SafetyScreen44 Panel, ITEM P270
Protocol: as §1, §2, §3, §4, §5, §6

5-HT1A (h) = biological target: T12, 5-HT1A (h) (Homo sapiens, UniProt P08908); experiment: Cerep panel binding assay; conditions: agonist radioligand
T12 construct: purchased Eurofins Pharma Discovery (Cerep) SafetyScreen44 Panel, ITEM P270
Protocol: as §1, §2, §3, §4, §5, §6

dopamine transporter (h) = biological target: T13, dopamine transporter (h) (Homo sapiens, UniProt Q01959); experiment: Cerep panel binding assay; conditions: antagonist radioligand
T13 construct: purchased Eurofins Pharma Discovery (Cerep) SafetyScreen44 Panel, ITEM P270
Protocol: as §1, §2, §3, §4, §5, §6

D1 (h) = biological target: T14, D1 (h) (Homo sapiens, UniProt P21728); experiment: Cerep panel binding assay; conditions: antagonist radioligand
T14 construct: purchased Eurofins Pharma Discovery (Cerep) SafetyScreen44 Panel, ITEM P270
Protocol: as §1, §2, §3, §4, §5, §6

delta (DOP) (h) = biological target: T15, delta (DOP) (h) (Homo sapiens, UniProt P41143); experiment: Cerep panel binding assay; conditions: agonist radioligand
T15 construct: purchased Eurofins Pharma Discovery (Cerep) SafetyScreen44 Panel, ITEM P270
Protocol: as §1, §2, §3, §4, §5, §6

kappa (h) (KOP) = biological target: T16, kappa (h) (KOP) (Homo sapiens, UniProt P41145); experiment: Cerep panel binding assay; conditions: agonist radioligand
T16 construct: purchased Eurofins Pharma Discovery (Cerep) SafetyScreen44 Panel, ITEM P270
Protocol: as §1, §2, §3, §4, §5, §6

alpha1A (h) = biological target: T17, alpha1A (h) (Homo sapiens, UniProt P35348); experiment: Cerep panel binding assay; conditions: antagonist radioligand
T17 construct: purchased Eurofins Pharma Discovery (Cerep) SafetyScreen44 Panel, ITEM P270
Protocol: as §1, §2, §3, §4, §5, §6

5-HT1B (h) = biological target: T18, 5-HT1B (h) (Homo sapiens, UniProt P28222); experiment: Cerep panel binding assay; conditions: antagonist radioligand
T18 construct: Eurofins Pharma Discovery (CRO that ran the assay) SafetyScreen44 Panel (Cerep, ITEM P270)
Protocol: as §1, §2, §3, §4, §5, §6

M1 (h) = biological target: T19, M1 (h) (Homo sapiens, UniProt P11229); experiment: Cerep panel binding assay; conditions: antagonist radioligand
T19 construct: Eurofins Pharma Discovery (CRO that ran the assay) SafetyScreen44 Panel (Cerep, ITEM P270)
Protocol: as §1, §2, §3, §4, §5, §6

CCK1 (CCKA) (h) = biological target: T20, CCK1 (CCKA) (h) (Homo sapiens, UniProt P32238); experiment: Cerep panel binding assay; conditions: agonist radioligand
T20 construct: Eurofins Pharma Discovery (CRO that ran the assay) SafetyScreen44 Panel (Cerep, ITEM P270)
Protocol: as §1, §2, §3, §4, §5, §6

CB1 (h) = biological target: T21, CB1 (h) (Homo sapiens, UniProt P21554); experiment: Cerep panel binding assay; conditions: agonist radioligand
T21 construct: purchased Eurofins Pharma Discovery (Cerep) SafetyScreen44 Panel, ITEM P270
Protocol: as §1, §2, §3, §4, §5, §6

mu (MOP) (h) = biological target: T22, mu (MOP) (h) (Homo sapiens, UniProt P35372); experiment: Cerep panel binding assay; conditions: agonist radioligand
T22 construct: purchased Eurofins Pharma Discovery (Cerep) SafetyScreen44 Panel, ITEM P270
Protocol: as §1, §2, §3, §4, §5, §6

[1] = biological target: T23, N neuronal alpha4beta2 (h) (Homo sapiens, UniProt P17787+P43681); experiment: Cerep panel binding assay; conditions: agonist radioligand
T23 construct: Eurofins Pharma Discovery (CRO that ran the assay) SafetyScreen44 Panel (Cerep, ITEM P270)
Protocol: as §1, §2, §3, §4, §5, §6

M2 (h) = biological target: T24, M2 (h) (Homo sapiens, UniProt P08172); experiment: Cerep panel binding assay; conditions: antagonist radioligand
T24 construct: Eurofins Pharma Discovery (CRO that ran the assay) SafetyScreen44 Panel (Cerep, ITEM P270)
Protocol: as §1, §2, §3, §4, §5, §6

NMDA = experiment: Cerep panel binding assay; conditions: 10 µM, antagonist radioligand
Protocol: as §1, §2, §3, §4, §5, §6

D2S (h) = biological target: T25, D2S (h) (Homo sapiens, UniProt P14416); experiment: Cerep panel binding assay; conditions: agonist radioligand
T25 construct: Eurofins Pharma Discovery (CRO that ran the assay) SafetyScreen44 Panel (Cerep, ITEM P270)
Protocol: as §1, §2, §3, §4, §5, §6

beta2 (h) = biological target: T26, beta2 (h) (Homo sapiens, UniProt P07550); experiment: Cerep panel binding assay; conditions: antagonist radioligand
T26 construct: purchased Eurofins Pharma Discovery (Cerep) SafetyScreen44 Panel, ITEM P270
Protocol: as §1, §2, §3, §4, §5, §6

AR (h) = biological target: T27, AR (h) (Homo sapiens, UniProt P10275, T878A); experiment: Cerep panel binding assay; conditions: agonist radioligand
T27 construct: purchased Eurofins Pharma Discovery (Cerep) SafetyScreen44 Panel, ITEM P270
Protocol: as §1, §2, §3, §4, §5, §6

M3 (h) = biological target: T28, M3 (h) (Homo sapiens, UniProt P20309); experiment: Cerep panel binding assay; conditions: antagonist radioligand
T28 construct: Eurofins Pharma Discovery (CRO that ran the assay) SafetyScreen44 Panel (Cerep, ITEM P270)
Protocol: as §1, §2, §3, §4, §5, §6

GR (h) = biological target: T29, GR (h) (Homo sapiens, UniProt P04150); experiment: Cerep panel binding assay; conditions: agonist radioligand
T29 construct: purchased Eurofins Pharma Discovery (Cerep) SafetyScreen44 Panel, ITEM P270
Protocol: as §1, §2, §3, §4, §5, §6

ETA (h) = biological target: T30, ETA (h) (Homo sapiens, UniProt P25101); experiment: Cerep panel binding assay; conditions: agonist radioligand
T30 construct: Eurofins Pharma Discovery (CRO that ran the assay) SafetyScreen44 Panel (Cerep, ITEM P270)
Protocol: as §1, §2, §3, §4, §5, §6

TRPC6 channel = biological target: T31, TRPC6 channel (Homo sapiens, UniProt Q9Y210); experiment: Ion channel profiling at Charles River: TRPC6; assay type: cell-based; conditions: expressed in HEK293 cells; read-out: ESTIMATED IC50
T31 construct: host or cells: HEK293 cells
Protocol: 1.4.3 Ion Channel Profiling at Charles River
Table S9. Compound 24 was tested against the following ion channels at Charles River Laboratories. […]
ScreenPatch Assay Kv1.3 potassium channel (human KCNA3 gene) expressed in CHO […]
FLIPR Assay expressed in HEK293 cells
GABAA α5/β3/γ2 ionotropic receptor (human GABRA5, GABRB3, >30 and GABRG2 genes, expressed in HEK293 cells […]
TRPC6 channel (human TRPC6 gene) expressed in HEK293 cells >30 […]
An increase in the number of colonies of at least two-fold over baseline (mean + SD of the vehicle control) and a dose response indicate a positive response. An […]
different from the vehicle control.
Where indicated, S9 fraction from the livers of Aroclor 1254-treated rats were included in the incubation at a final concentration of 4.5%. A NADPH-regenerating system was also included to ensure a steady supply of reducing equivalents.

T6 sequence (P08913 whole entry): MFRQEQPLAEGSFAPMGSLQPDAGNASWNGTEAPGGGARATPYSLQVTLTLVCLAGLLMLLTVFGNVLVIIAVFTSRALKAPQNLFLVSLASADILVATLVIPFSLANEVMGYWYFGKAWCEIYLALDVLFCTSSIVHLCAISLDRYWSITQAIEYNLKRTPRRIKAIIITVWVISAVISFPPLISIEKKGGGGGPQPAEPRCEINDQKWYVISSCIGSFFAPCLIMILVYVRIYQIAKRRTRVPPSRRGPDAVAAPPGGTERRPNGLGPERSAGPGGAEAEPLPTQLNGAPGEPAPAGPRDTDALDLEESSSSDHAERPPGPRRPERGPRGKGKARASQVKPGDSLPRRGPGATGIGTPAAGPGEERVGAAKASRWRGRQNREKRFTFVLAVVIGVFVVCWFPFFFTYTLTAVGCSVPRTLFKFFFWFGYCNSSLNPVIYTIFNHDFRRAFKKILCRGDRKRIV
T20 sequence (P32238 whole entry): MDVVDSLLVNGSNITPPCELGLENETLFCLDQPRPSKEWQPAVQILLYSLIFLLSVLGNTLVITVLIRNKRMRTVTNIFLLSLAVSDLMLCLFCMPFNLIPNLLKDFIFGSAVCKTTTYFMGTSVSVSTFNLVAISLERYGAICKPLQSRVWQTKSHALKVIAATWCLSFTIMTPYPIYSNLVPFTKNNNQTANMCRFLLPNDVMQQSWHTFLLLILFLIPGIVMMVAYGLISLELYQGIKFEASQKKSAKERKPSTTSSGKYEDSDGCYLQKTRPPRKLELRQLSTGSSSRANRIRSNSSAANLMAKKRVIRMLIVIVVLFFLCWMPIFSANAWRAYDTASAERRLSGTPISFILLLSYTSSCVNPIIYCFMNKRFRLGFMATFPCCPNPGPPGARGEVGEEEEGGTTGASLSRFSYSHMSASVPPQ
T30 sequence (P25101 21-427): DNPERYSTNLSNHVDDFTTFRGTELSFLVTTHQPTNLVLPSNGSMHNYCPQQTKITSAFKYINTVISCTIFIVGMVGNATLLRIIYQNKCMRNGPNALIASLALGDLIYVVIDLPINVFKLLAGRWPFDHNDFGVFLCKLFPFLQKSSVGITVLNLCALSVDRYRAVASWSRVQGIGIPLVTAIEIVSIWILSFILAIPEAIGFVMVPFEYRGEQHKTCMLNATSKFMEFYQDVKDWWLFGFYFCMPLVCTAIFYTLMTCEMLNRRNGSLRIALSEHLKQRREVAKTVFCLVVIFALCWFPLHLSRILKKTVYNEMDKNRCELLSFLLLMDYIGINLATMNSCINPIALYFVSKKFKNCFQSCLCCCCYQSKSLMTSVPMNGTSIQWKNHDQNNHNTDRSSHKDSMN
T10 sequence (P41595 whole entry): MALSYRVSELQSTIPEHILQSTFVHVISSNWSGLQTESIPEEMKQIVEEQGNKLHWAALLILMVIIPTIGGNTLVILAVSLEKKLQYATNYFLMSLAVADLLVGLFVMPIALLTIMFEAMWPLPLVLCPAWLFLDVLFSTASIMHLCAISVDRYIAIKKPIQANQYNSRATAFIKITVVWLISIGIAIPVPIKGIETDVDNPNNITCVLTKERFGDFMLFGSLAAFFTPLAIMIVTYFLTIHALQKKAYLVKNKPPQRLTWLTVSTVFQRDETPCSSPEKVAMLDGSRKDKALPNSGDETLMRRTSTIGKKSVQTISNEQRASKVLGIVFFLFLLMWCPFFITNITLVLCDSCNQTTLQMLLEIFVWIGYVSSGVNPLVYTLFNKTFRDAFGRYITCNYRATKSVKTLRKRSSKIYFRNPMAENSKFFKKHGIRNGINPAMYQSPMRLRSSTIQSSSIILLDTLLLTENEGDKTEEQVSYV
T22 sequence (P35372 whole entry): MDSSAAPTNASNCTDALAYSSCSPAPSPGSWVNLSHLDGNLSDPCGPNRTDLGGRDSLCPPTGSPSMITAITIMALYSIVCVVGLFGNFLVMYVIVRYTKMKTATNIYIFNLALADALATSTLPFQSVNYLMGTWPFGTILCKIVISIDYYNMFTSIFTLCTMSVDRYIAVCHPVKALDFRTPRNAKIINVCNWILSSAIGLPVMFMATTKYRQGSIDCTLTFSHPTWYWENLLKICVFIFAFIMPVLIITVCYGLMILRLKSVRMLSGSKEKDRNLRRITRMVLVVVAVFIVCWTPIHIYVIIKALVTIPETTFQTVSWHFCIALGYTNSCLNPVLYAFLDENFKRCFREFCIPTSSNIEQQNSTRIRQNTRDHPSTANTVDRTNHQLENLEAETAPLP
T14 sequence (P21728 whole entry): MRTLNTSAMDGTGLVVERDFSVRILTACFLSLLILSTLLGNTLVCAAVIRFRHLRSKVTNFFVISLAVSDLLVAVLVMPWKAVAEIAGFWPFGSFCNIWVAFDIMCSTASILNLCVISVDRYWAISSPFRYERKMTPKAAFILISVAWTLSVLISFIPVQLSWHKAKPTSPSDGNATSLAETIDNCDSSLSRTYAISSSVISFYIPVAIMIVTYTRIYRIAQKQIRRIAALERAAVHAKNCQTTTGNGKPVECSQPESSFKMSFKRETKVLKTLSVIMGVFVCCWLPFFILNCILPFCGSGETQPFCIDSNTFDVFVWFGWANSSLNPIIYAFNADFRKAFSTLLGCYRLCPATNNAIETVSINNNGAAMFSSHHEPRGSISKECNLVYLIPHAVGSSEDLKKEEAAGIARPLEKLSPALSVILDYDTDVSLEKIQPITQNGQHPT
T25 sequence (P14416 1-414 isoform P14416-2): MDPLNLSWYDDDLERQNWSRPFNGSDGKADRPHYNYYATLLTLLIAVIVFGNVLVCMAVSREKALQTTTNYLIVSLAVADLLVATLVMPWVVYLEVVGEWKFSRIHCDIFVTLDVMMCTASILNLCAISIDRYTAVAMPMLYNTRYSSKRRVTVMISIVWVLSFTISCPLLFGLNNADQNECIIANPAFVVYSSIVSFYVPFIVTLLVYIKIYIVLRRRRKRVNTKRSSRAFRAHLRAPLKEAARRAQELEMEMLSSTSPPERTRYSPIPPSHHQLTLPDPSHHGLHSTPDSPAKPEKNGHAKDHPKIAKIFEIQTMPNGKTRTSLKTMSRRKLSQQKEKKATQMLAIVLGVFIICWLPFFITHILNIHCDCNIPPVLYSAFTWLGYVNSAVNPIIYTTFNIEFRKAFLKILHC
T11 sequence (P35367 whole entry): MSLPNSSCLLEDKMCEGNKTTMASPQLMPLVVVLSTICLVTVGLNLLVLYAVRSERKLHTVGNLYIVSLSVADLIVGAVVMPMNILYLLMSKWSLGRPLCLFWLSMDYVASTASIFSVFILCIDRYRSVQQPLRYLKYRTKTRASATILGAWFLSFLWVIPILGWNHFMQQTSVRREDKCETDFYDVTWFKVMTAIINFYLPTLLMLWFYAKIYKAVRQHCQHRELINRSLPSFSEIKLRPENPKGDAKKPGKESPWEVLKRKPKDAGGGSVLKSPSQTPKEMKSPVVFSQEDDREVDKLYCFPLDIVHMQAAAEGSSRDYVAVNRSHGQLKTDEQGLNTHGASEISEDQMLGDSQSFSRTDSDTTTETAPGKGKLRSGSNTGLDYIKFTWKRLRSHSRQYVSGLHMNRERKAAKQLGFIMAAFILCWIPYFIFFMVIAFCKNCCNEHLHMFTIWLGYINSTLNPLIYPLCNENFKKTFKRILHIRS
T21 sequence (P21554 whole entry): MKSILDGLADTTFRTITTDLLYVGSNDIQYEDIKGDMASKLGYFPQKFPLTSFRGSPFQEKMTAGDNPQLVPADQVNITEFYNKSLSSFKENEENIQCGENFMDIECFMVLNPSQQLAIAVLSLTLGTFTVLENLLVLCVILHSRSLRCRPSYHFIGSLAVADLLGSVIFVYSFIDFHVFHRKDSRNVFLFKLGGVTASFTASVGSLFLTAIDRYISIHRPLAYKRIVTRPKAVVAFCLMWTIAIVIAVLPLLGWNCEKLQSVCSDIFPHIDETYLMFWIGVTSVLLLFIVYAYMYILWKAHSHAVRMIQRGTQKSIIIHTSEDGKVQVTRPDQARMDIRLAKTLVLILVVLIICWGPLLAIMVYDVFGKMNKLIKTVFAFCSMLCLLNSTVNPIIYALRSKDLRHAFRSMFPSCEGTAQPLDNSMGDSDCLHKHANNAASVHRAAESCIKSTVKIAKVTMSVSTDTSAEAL
T27 sequence (P10275 whole entry T878A): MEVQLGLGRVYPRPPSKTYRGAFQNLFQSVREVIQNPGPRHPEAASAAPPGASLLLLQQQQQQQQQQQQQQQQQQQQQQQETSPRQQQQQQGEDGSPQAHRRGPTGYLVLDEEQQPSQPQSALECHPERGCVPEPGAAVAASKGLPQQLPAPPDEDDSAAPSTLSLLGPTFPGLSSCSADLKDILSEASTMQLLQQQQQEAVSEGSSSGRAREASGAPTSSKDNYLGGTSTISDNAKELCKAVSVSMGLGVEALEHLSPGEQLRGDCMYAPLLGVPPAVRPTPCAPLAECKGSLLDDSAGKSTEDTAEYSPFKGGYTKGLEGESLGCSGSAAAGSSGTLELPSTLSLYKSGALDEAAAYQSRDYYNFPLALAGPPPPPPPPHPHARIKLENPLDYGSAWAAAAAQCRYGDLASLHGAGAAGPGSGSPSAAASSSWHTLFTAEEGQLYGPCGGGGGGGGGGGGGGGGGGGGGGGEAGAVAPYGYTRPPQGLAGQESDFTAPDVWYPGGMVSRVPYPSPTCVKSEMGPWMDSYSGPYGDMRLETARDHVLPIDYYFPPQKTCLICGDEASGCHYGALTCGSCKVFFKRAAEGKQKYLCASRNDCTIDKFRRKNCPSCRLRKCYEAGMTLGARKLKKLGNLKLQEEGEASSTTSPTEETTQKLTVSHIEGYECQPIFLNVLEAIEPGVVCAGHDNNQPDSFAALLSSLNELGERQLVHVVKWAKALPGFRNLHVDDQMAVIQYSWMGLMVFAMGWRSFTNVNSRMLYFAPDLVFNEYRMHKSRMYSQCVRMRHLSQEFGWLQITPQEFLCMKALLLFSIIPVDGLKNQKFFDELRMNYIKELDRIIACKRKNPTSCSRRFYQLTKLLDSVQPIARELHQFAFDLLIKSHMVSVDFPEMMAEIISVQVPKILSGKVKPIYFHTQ

CC(C)Oc1ccc(-c2ncc(CNc3ccnc(C(F)(F)F)c3)cn2)cc1Cl [Compound 24]
inhibition at 10 µM (5-HT transporter (h)): 49.8% | inhibition at 10 µM (5-HT2A (h)): -2.8% | inhibition at 10 µM (MAO-A): 24.9% | BINDING (%) (A2A (h)): 2.2% | inhibition at 10 µM (H2 (h)): -30% | BINDING (%) (KV channel): 14.2% | inhibition at 10 µM (alpha2A (h)): 8.4% | inhibition at 10 µM (beta1 (h)): 7.1% | inhibition at 10 µM (5-HT3 (h)): 4.4% | BINDING (%) (BZD (central)): –27.1% | inhibition at 10 µM (CB2 (h)): 31% | inhibition at 10 µM (5-HT2B (h)): 62.2% | inhibition at 10 µM (H1 (h)): 8.2% | inhibition at 10 µM (5-HT1A (h)): 11.3% | inhibition at 10 µM (dopamine transporter (h)): 22.7% | inhibition at 10 µM (D1 (h)): 12.2% | inhibition at 10 µM (delta (DOP) (h)): 14.5% | inhibition at 10 µM (kappa (h) (KOP)): 23.6% | inhibition at 10 µM (alpha1A (h)): 3.4% | inhibition at 10 µM (5-HT1B (h)): -6.7% | inhibition at 10 µM (M1 (h)): -5.9% | inhibition at 10 µM (CCK1 (CCKA) (h)): -12% | inhibition at 10 µM (CB1 (h)): 16.3% | inhibition at 10 µM (mu (MOP) (h)): 8.2% | inhibition at 10 µM [1]: -4.7% | inhibition at 10 µM (M2 (h)): 0% | BINDING (%) (NMDA): 0.9% | inhibition at 10 µM (D2S (h)): -0.6% | inhibition at 10 µM (beta2 (h)): 7.9% | inhibition at 10 µM (AR (h)): 12.7% | inhibition at 10 µM (M3 (h)): -2% | inhibition at 10 µM (GR (h)): 16.2% | inhibition at 10 µM (ETA (h)): -0.3% | pIC50 (TRPC6 channel): < 4.52
